Publication PMC8300687, “A Fine-Tuned Lipophilicity/Hydrophilicity Ratio Governs Antibacterial Potency and Selectivity of Bifurcated Halogen Bond-Forming NBTIs” (Antibiotics, 2021)
Converted amounts (≈) assume the structure as drawn. Where two headings read alike, the source gives them in different places.

Columns and labels:
E. coli DNA gyrase = target: T1, E. coli DNA gyrase (Escherichia coli, UniProt P0AES4); test: Gyrase Supercoiling High Throughput Plate assay, E. coli; format: biochemical; conditions: for LE DNA Gyrase E. coli: LE = (1.37/HA) × pIC50
T1 construct: purchased Inspiralis (Norwich, UK)
T1 sequence (P0AES4 whole entry): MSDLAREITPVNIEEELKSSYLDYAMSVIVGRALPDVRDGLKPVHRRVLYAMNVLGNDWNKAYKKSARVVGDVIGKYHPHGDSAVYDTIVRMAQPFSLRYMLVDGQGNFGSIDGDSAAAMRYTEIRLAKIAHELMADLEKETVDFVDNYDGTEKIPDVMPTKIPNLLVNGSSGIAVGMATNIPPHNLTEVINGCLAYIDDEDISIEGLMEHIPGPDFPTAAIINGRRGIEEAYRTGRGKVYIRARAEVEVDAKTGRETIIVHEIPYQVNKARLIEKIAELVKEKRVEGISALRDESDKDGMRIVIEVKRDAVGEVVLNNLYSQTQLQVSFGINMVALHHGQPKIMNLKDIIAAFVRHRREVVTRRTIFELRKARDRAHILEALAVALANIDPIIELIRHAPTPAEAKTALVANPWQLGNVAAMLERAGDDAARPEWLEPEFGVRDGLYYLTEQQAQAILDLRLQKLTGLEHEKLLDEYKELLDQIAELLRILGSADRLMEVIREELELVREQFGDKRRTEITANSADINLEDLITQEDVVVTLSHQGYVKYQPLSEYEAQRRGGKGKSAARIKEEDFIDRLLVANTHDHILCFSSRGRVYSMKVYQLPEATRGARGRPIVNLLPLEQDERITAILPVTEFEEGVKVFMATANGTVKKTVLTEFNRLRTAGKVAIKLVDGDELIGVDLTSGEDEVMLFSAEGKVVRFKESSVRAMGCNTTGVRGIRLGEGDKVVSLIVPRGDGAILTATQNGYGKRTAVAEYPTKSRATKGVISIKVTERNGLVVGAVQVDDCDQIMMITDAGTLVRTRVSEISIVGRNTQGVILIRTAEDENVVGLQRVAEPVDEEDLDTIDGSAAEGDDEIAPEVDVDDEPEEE
Experimental: A Gyrase Supercoiling High Throughput Plate assay kit, purchased from Inspiralis (Norwich. UK) was used to determine IC50 values of compounds on S. aureus and E. coli. […] Biotinylated oligonucleotide in wash buffer was immobilized onto the wells, and the excess oligonucleotide was washed off with wash buffer and ultrapure water. […] The reactions were stopped by adding the TF buffer (50 mM NaOAc (pH 4.7), 50 mM NaCl, and 50 mM MgCl2) to allow the triplex formation (biotin-oligonucleotide-plasmid) for additional 30 min. Afterward, the unbound plasmid was washed off using TF buffer, and the solution of Promega Diamond dye in T10 buffer (10 mM Tris-HCl (pH 8.0), 1 mM EDTA) was added. […] IC50 value represents the mean of two to four independent measurements.

E. coli D22 = test: MIC broth microdilution, E. coli D22; format: cell-based; conditions: Escherichia coli
Experimental: Antimicrobial testing was carried out by the broth microdilution method in 96-well plate format following the Clinical and Laboratory Standards Institute (CLSI) guidelines and European Committee on Antimicrobial Susceptibility Testing (EUCAST) recommendations. Bacterial suspension of specific bacterial strain equivalent to 0.5 McFarland turbidity standard was diluted with cation-adjusted Mueller Hinton broth with TES (Thermo Fisher Diagnostic, Landsmeer, The Netherlands), to obtain a final inoculum of 10^5 CFU/mL. Compounds dissolved in DMSO and inoculum were mixed together and incubated for 18–20 h at 35 °C. Suspensions of Mycobacterium sp. were prepared into a tube of Middelbrook 7H9 broth supplemented with 5% OADC (Thermo Scientific, Trek Diagnostic Systems, West Sussex, UK) and incubated for at least 10 days. After incubation the minimal inhibitory concentration (MIC) values were determined by visual inspection as the lowest dilution of compounds showing no turbidity. Tetracycline was used as a positive control on every assay plate.

[1] = Equilibrium solubility at pH 6.8; conditions: for solubility thermodynamic at 24 h: phosphate buffered saline, 37 °C, pH 6.8, aqueous buffer, thermodynamic from solid
Experimental: Prior to the measurements of solubility and permeability isocratic HPLC methods were developed. […] The individual method parameters for each compound are given in the Supplementary Materials Table S1.
The vials were then placed in a homogenizer (Next Advance Bullet Blender, Troy, NY, USA) for 5 min ad speed setting “2” after which they were kept in a thermostated shaker (Tehtnica HeatMix, Domel, Slovenia) at 37 °C and 1200 RPM for 24 h. […] Twenty µL of these solutions were injected for the HPLC analysis by the described methods (Supplementary Materials Table S1). External standards for calibration were made in a mobile phase with 5% acetonitrile in a range of 30–90 mg/L and injected at 20 µL injection volumes.

HepG2 = test: Metabolic activity assessment (cytotoxicity), HepG2; format: cell-based; conditions: Homo sapiens
Experimental: Cells of the HepG2 line (ATCC® HB-8065™) and HUVEC (ATCC® CRL-1730™) were cultured in Dulbecco’s Modified Eagle Medium (DMEM; Sigma-Aldrich, St. Louis, MO, USA) supplemented with 10% heat-deactivated FBS (Gibco, Grand Island, NE, USA), 2 mM L-glutamine, 100 U/mL penicillin, 100 μg/mL streptomycin (all from Sigma-Aldrich, St. Louis, MO, USA) in a humidified chamber at 37 °C and 5% CO2. The experiments were carried out on passages 7–9 for both cell lines. The tested compounds were dissolved in DMSO and further diluted in culture medium to a desired final concentration. Cells were seeded into 96-well plates at 8 × 10^4 cells/mL (100 μL/well) and incubated for 24 h to attach onto the wells. Cells were treated with 1 μM and 50 μM of each compound of interest or corresponding vehicle as control. […] The metabolic activity was assessed after 72 h treatment using the CellTiter 96 Aqueous One Solution Cell Proliferation Assay (Promega, Madison, WI, USA), in accordance with the manufacturer’s instructions. The absorbance was measured at 492 nm on an automated microplate reader BioTek Synergy HT (BioTek Instruments, Inc., Winooski, VT, USA). Data are presented as the percentage of metabolic activity of control cells stimulated with vehicle or as IC50 value (mean ± SD) from two independent experiments, each conducted in duplicate or triplicate. IC50 values were calculated by a non-linear regression model using Graph Pad Prism 7 software.

[2] = target: T2, hERG potassium ion channel (Homo sapiens, UniProt Q12809); test: FP-based hERG binding assay (Invitrogen kit)
T2 construct: purchased Invitrogen (assay run at TCG Lifesciences Pvt. Ltd.)
T2 sequence (Q12809 whole entry): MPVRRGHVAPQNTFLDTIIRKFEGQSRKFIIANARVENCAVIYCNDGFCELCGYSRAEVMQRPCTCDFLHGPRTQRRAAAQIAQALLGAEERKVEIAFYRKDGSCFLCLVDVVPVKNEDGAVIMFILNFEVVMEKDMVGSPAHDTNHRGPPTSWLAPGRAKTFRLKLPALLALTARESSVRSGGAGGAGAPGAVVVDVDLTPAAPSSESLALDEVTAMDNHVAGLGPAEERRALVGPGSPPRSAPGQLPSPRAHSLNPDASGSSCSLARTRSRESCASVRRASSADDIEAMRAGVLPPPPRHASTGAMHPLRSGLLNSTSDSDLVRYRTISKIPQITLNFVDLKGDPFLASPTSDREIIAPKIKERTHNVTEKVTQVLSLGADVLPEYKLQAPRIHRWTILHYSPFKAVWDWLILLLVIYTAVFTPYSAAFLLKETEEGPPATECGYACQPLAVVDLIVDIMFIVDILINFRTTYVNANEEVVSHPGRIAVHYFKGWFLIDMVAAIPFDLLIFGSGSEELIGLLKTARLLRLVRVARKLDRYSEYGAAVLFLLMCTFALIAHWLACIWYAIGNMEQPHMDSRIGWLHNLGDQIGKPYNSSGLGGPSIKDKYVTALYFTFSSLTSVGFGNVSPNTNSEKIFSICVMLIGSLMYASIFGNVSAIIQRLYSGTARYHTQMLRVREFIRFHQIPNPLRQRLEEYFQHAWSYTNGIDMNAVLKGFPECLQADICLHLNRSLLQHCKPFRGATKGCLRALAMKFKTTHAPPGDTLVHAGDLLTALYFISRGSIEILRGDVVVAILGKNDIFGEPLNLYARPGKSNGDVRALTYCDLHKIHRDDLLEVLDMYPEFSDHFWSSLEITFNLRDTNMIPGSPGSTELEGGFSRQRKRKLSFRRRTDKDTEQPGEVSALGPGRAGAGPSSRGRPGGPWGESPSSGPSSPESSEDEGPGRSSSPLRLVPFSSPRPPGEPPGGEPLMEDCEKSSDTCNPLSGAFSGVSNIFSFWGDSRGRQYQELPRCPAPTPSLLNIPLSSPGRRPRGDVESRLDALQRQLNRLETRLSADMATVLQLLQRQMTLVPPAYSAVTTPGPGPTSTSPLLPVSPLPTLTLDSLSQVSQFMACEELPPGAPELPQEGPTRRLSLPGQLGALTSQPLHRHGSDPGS
Experimental: Cardiovascular safety profile was entirely outsourced. hERG screening was performed at TCG Lifesciences Pvt. Ltd., Kolkata, West Bengal, India with FP-based hERG binding assay (Invitrogen kit).

[3] = D22, mutation in the lpxC gene that increases membrane permeability, read-out: MIC E. coli D22
[4] = HepG2, metabolic activity after 72 h treatment

| Structure (SMILES) | IC50 (E. coli DNA gyrase) [µM] | LE DNA Gyrase E. coli (E. coli DNA gyrase) | MIC (E. coli D22; [3]) [µg/mL] | solubility thermodynamic at 24 h [1] [µg/mL] | IC50 (HepG2; [4]) [µM] | IC50 [2] [µM] | solubility at pH 6.8 in words ([1]; pH 6.8, single-dose in 500 mL) | IC50 (HepG2; HepG2, 72 h, metabolic activity after 72 h treatment) [µM] | MIC (E. coli D22; D22, read-out: MIC E. coli D22) [µg/mL] | increase in potency on E. coli DNA gyrase (E. coli DNA gyrase; vs most potent compound from previous study [18]) |
| --- | --- | --- | --- | --- | --- | --- | --- | --- | --- | --- |
| COc1ccc2nccc(CCN3CCC(NCc4ccc(N(C)C)cc4)CC3)c2n1 [Compound 18] | 11.9 ± 0.83 | 0.22 | 8 (≈ 19.1 µM) | 537 (≈ 1280 µM) | – | – | – | – | – | – |
| COc1ccc2nccc(CCN3CCC(NCc4ccccc4)CC3)c2n1 [Compound 11] | 40.6 ± 1.97 | 0.21 | 16 (≈ 42.5 µM) | 1370 (≈ 3640 µM) | – | – | – | – | – | – |
| COc1ccc2nccc(CCN3CCC(NCc4ccc(C(N)=O)cc4)CC3)c2n1 [Compound 17] | > 100 | – | 128 (≈ 305 µM) | 560 (≈ 1330 µM) | – | – | – | – | – | – |
| C=CCn1cc(CNC2CCN(CCc3ccnc4ccc(OC)nc34)CC2)cn1 [Compound 10, N-((1-Allyl-1H-pyrazol-4-yl)methyl)-1-(2-(6-methoxy-1,5-naphthyridin-4-yl)ethyl)piperidin-4-amine] | 16.7 ± 0.93 | 0.22 | 8 (≈ 19.7 µM) | 5700 (≈ 14000 µM) | > 50 | 6.62 | soluble at this pH in any conceivable single-dose | – | – | – |
| COc1ccc2nccc(CCN3CCC(NCc4cnn(-c5ccccc5)n4)CC3)c2n1 [Compound 8, 1-(2-(6-Methoxy-1,5-naphthyridin-4-yl)ethyl)-N-((2-phenyl-2H-1,2,3-triazol-4-yl)methyl)piperidin-4-amine] | 7.83 ± 0.55 | 0.21 | 32 (≈ 72.1 µM) | 106 (≈ 239 µM) | 17.1 ± 0.98 | 0.37 | – | – | – | – |
| COc1ccc2nccc(CCN3CCC(NCc4cnn(-c5ccc(F)cc5)c4)CC3)c2n1 [Compound 4, N-((1-(4-Fluorophenyl)-1H-pyrazol-4-yl)methyl)-1-(2-(6-methoxy-1,5-naphthyridin-4-yl)ethyl)piperidin-4-amine] | 13.3 ± 2.84 | 0.20 | 16 (≈ 34.7 µM) | 585 (≈ 1270 µM) | 4.64 ± 0.1 | 0.33 | – | – | – | – |
| COc1ccc2nccc(CCN3CCC(NCc4ccc(OC(F)F)c(OC)c4)CC3)c2n1 [Compound 19, N-(4-(Difluoromethoxy)-3-methoxybenzyl)-1-(2-(6-methoxy-1,5-naphthyridin-4-yl)ethyl)piperidin-4-amine] | 3.9 ± 0.06 | 0.22 | 16 (≈ 33.9 µM) | 79 (≈ 167 µM) | – | 0.46 | – | 6.31 ± 0.09 | – | – |
| COc1ccc2nccc(CCN3CCC(NCc4ccc(Br)cc4)CC3)c2n1 [Compound 14] | – | – | – | 72 (≈ 158 µM) | – | – | – | – | 0.125 (≈ 0.274 µM) | – |
| COc1ccc2nccc(CCN3CCC(NCc4cnn(-c5ccccc5)c4)CC3)c2n1 [Compound 5, 1-(2-(6-Methoxy-1,5-naphthyridin-4-yl)ethyl)-N-((1-phenyl-1H-pyrazol-4-yl)methyl)piperidin-4-amine] | 3 ± 0.55 | 0.23 | 1 (≈ 2.26 µM) | 381 (≈ 861 µM) | 6.33 ± 0.19 | 0.62 | – | – | – | Approximately 4 fold |
| COc1ccc(CNC2CCN(CCc3ccnc4ccc(OC)nc34)CC2)cn1 [Compound 22, 1-(2-(6-Methoxy-1,5-naphthyridin-4-yl)ethyl)-N-((6-methoxypyridin-3-yl)methyl)piperidin-4-amine] | 7.24 ± 0.34 | 0.23 | 4 (≈ 9.82 µM) | 1460 (≈ 3580 µM) | 32.03 ± 0.3 | 3.05 | – | – | – | – |
